How the values were obtained:
Assay type in all cases: in vivo
[1] = tested on: Pharbitis purpurea (PHBPU); assay: E. Herbicidal post-emergence efficacy, PHBPU
Method in brief: (§1)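 Greenhouse post-emergence spray, one-leaf stage (2–3 wk after sowing, sandy loam); WP/EC formulation, aqueous + 0.5% additive, 600 l/ha water; rates 320 g/ha or less. Visual rating ~3 wk later vs untreated; 0% = control-like, 100% = dead.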

Lolium rigidum (LOLRI) = assay: A. Herbicidal pre-emergence efficacy, LOLRI
Method in brief: (§2)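 Pre-emergence soil-surface spray in sandy loam pots, WP/EC in water plus 0.5% additive, 600 L/ha. Visual % damage rating after about 3 weeks in greenhouse vs. untreated; 0% = control-like, 100% = dead plants. Rates up to 1280 g/ha.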

Veronica persica (VERPE) = assay: A. Herbicidal pre-emergence efficacy, VERPE; conditions: for Pre-emergence efficacy against VERPE: dosage 80 g/ha
Method in brief: as §2

[2] = tested on: Polygonum convolvulus (POLCO); assay: C. Herbicidal pre-emergence efficacy, POLCO; conditions: scored after about 3 weeks
Text: Seeds of monocotyledonous and dicotyledonous weed plants and crop plants were placed in plastic or organic planting pots and covered with soil. The compounds of the invention, formulated in the form of wettable powders (WP) or as emulsion concentrates (EC), were then applied to the surface of the covering soil as aqueous suspension or emulsion with addition of 0.5% additive at a water application rate equivalent to 600 l/ha (converted). After the treatment, the pots were placed in a greenhouse and kept under good growth conditions for the test plants. After about 3 weeks, the efficacy of the preparations was scored visually in comparison with untreated controls as percentages. For example, • 100% efficacy=plants have died, • 0% efficacy=like untreated control plants.
Tables C1a to C14b below show the effects of selected compounds of the general formula (I) according to table 1 on various harmful plants at an application rate corresponding to 320 g/ha or less, which were obtained by the experimental procedure mentioned above.

Setaria viridis (SETVI) = assay: A. Herbicidal pre-emergence efficacy, SETVI
Method in brief: as §2

Kochia scoparia (KCHSC) = assay: E. Herbicidal post-emergence efficacy, KCHSC
Method in brief: as §1

[3] = tested on: Amaranthus retroflexus (AMARE); assay: B. Herbicidal post-emergence efficacy, AMARE
Method in brief: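 Weeds grown in sandy loam in greenhouse pots, sprayed at one-leaf stage (2–3 weeks after sowing) with WP or EC formulations as aqueous suspension/emulsion plus 0.5% additive at 600 L/ha water, rates up to 1280 g/ha. Visual efficacy rated about 3 weeks later versus untreated controls (0% = like control, 100% = dead).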

[4] = tested on: Triticum aestivum (TRZAS); assay: F. Post-emergence effect on useful plants, TRZAS; conditions: useful plant
Method in brief: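 Crop plants grown in sandy loam in the greenhouse were sprayed at the one-leaf stage, 2-3 weeks after sowing, with WP or EC formulations plus 0.5% additive at 600 l/ha water. Damage was scored visually after about 3 weeks against untreated controls (0% = like control, 100% = dead).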

| SMILES | Post-emergence efficacy against PHBPU in % ([1]; application rate 80 g/ha) | Post-emergence efficacy against PHBPU in % ([1]; application rate 320 g/ha) | Pre-emergence efficacy against LOLRI (Lolium rigidum (LOLRI); dosage 320 g/ha) | Pre-emergence efficacy against LOLRI (Lolium rigidum (LOLRI); dosage 1280 g/ha) | Pre-emergence efficacy against VERPE in % (Veronica persica (VERPE); 320 g/ha) | Pre-emergence efficacy against VERPE in % (Veronica persica (VERPE); 1280 g/ha) | Pre-emergence efficacy against VERPE (Veronica persica (VERPE)) | Pre-emergence efficacy against POLCO ([2]; 80 g/ha) | Pre-emergence efficacy against POLCO ([2]; 320 g/ha) | Pre-emergence efficacy against SETVI (Setaria viridis (SETVI); dosage 80 g/ha) | Pre-emergence efficacy against SETVI (Setaria viridis (SETVI); dosage 320 g/ha) | Pre-emergence efficacy against SETVI (Setaria viridis (SETVI); dosage 1280 g/ha) | Post-emergence efficacy against KCHSC in % (Kochia scoparia (KCHSC); application rate 80 g/ha) | Post-emergence efficacy against KCHSC in % (Kochia scoparia (KCHSC); application rate 320 g/ha) | Post-emergence efficacy against AMARE ([3]; 80 g/ha) | Post-emergence efficacy against AMARE ([3]; 320 g/ha) | Post-emergence efficacy against AMARE ([3]; 1280 g/ha) | Post-emergence efficacy against TRZAS in % ([4]; application rate 80 g/ha) | Post-emergence efficacy against TRZAS in % ([4]; application rate 320 g/ha) |
| --- | --- | --- | --- | --- | --- | --- | --- | --- | --- | --- | --- | --- | --- | --- | --- | --- | --- | --- | --- |
| O=S(=O)(CCCC(F)(F)F)Oc1c(F)cccc1Oc1ncc(F)cn1 [Example I-42] | 100% | 100% | 100% | 100% | 100% | 100% | 100% | 100% | 100% | 100% | 100% | 100% | 90% | 90% |  |  |  |  |  |
| O=S(=O)(CC1CC(F)(F)C1)Oc1c(F)cccc1Oc1ncc(Cl)cn1 [Example I-53] | 100% | 100% | 90% | 100% | 100% | 100% | 100% | 100% | 100% | 100% | 100% | 100% | 90% | 90% | 90% | 90% | 90% |  |  |
| CC(C)CS(=O)(=O)Oc1ccccc1Oc1ncc(Cl)cn1 [Example I-7, [2-(5-Chloropyrimidin-2-yl)oxyphenyl] 2-methylpropane-1-sulfonate] |  | 90% |  | 90% |  | 100% |  | 90% | 100% | 100% | 100% | 100% |  |  |  | 90% | 90% | 20% |  |
| CCCS(=O)(=O)Oc1ccccc1Oc1ncc(Cl)cn1 [Example I-3] |  | 90% | 100% | 100% | 100% | 100% | 100% |  | 100% | 100% | 100% | 100% |  |  | 90% | 100% | 100% | 0% | 10% |
| O=S(=O)(CC1CC1)Oc1ccccc1Oc1ncc(Cl)cn1 [Example I-23] |  | 100% | 90% | 90% | 100% | 100% | 90% | 100% | 100% |  |  | 100% |  |  | 100% | 100% | 100% | 0% |  |
| O=S(=O)(CCCCl)Oc1ccccc1Oc1ncc(Cl)cn1 [Example I-2] |  | 100% | 90% | 100% | 100% | 100% | 100% | 90% | 100% | 100% | 100% | 100% |  |  | 100% | 100% | 100% | 0% |  |
| O=S(=O)(CCC(F)(F)F)Oc1ccccc1Oc1ncc(Cl)cn1 [Example I-8] |  | 100% | 90% | 90% | 100% | 100% | 100% | 90% | 90% | 100% | 100% | 100% |  |  | 90% | 100% | 100% | 20% |  |
